In the experiment the target is T1, recombinant human GR (Homo sapiens, UniProt P04150).
T1 construct: purchased Panvera/Invitrogen P2812 (kit P2893)
T1 sequence (P04150 1-777): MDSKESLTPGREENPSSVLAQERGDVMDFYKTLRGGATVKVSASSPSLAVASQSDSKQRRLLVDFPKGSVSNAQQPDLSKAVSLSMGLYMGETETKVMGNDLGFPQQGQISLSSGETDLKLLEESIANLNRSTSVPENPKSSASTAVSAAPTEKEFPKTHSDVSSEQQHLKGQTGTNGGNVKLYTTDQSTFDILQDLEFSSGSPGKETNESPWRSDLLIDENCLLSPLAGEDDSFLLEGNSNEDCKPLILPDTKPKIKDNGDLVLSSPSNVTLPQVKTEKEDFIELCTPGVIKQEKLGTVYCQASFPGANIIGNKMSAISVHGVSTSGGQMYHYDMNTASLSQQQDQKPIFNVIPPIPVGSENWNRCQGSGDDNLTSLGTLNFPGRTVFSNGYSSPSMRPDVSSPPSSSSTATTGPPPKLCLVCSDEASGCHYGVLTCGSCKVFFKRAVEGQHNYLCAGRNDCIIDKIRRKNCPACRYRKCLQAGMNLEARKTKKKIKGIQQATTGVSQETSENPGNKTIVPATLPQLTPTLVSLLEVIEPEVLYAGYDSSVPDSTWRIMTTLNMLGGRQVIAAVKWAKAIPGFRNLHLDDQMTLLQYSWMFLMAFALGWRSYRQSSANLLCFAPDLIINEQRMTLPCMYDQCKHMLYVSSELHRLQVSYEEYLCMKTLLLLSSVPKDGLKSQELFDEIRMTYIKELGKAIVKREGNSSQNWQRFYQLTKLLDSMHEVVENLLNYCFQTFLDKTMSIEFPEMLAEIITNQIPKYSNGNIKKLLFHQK
The experiment is described as follows: Human Glucocorticoid Receptor (GR) Assay (fluorescence polarization, Panvera/Invitrogen kit). To be noted: GS Red tracer, 2 hours at room temperature, 100% control 10 μM Dexamethasone, read-out: Inhibition of GR binding, IC50. As for the experimental part:
Human Glucocorticoid Receptor (GR) Assay The assay is based on a commercial kit from Panvera/Invitrogen (Part number P2893). The assay technology is fluorescence polarization. The kit utilises recombinant human GR (Panvera, Part number P2812), a Fluoromone™ labelled tracer (GS Red, Panvera, Part number P2894) and a Stabilizing Peptide 10× (Panvera, Part number P2815). The GR and Stabilizing Peptide reagents are stored at −70° C. while the GS Red is stored at −20° C. Also included in the kit are 1M DTT (Panvera, Part number P2325, stored at −20° C.) and GR Screening buffer 10× (Panvera, Part number P2814, stored at −70° C. initially but once thawed stored at room temperature). Avoid repeated freeze/thaws for all reagents. The GR Screening buffer 10× comprises 100 mM potassium phosphate, 200 mM sodium molybdate, 1 mM EDTA and 20% DMSO. Test compounds (1 μL) and controls (1 μL) in 100% DMSO were added to black polystyrene 384-well plates (Greiner low volume black flat-bottom, part number 784076). 0% control was 100% DMSO and 100% control was 10 μM Dexamethasone. Background solution (8 μL; assay buffer 10×, Stabilizing Peptide, DTT and ice cold MQ water) was added to the background wells. GS Red solution (7 μL; assay buffer 10×, Stabilizing Peptide, DTT, GS Red and ice cold water) was added to all wells except background wells. GR solution (7 μL; assay buffer 10×, Stabilizing Peptide, DTT, GR and ice cold water) was added to all wells. The plate was sealed and incubated in a dark at room temperature for 2 hours. The plate was read in an Analyst plate reader (LJL Biosystems/Molecular Devices Corporation) or other similar plate reader capable of recording fluorescence polarization (excitation wavelength 530 nm, emission wavelength 590 nm and a dichroic mirror at 561 nm).
On the technique in general: Fluorescence polarisation rises when a labelled molecule tumbles more slowly, as on binding a larger partner.
The term IC50 denotes the concentration needed to halve the response being measured. For `CCC[C@@H]1O[C@@H]2C[C@H]3[C@@H]4CCC5=Cc6c(cnn6-c6ccc(F)c(CO)c6)C[C@]5(C)[C@H]4[C@@H](O)C[C@]3(C)[C@]2(C(=O)CO)O1` [Example 16, 1-[(4aR,4bS,5S,6aS,6bS,8R,9aR,10aS,10bS)-1-[4-Fluoro-3-(hydroxymethyl)phenyl]-5-hydroxy-4a,6a-dimethyl-8-propyl-4,4a,4b,5,6,6a,9a,10,10a,10b,11,12-dodecahydro[1,3]dioxolo[3′,4′]cyclopenta[1′,2′:5,6]naphtho[1,2-f]indazol-6b(1H)-yl]-2-hydroxyethanone], the IC50 came out at 3.1 nM. In the case of `CCC[C@@H]1O[C@@H]2C[C@H]3[C@@H]4CCC5=Cc6c(cnn6-c6ccc(F)cc6)C[C@]5(C)[C@H]4[C@@H](O)C[C@]3(C)[C@]2(C(=O)SCC#N)O1` [Example 25, (4aR,4bS,5S,6aS,6bS,8R,9aR,10aS,10bS)-6b-(cyanomethylthiocarbonyl)-1-(4-fluorophenyl)-5-hydroxy-4a,6a-dimethyl-8-propyl-4,4a,4b,5,6,6a,9a,10,10a,10b,11,12-dodecahydro[1,3]dioxolo[3′,4′]cyclopenta[1′,2′:5,6]naphtho[1,2-f]indazol], the IC50 was 12 nM. Next, `CCC[C@H]1O[C@@H]2C[C@H]3[C@@H]4CCC5=Cc6c(cnn6-c6ccc(F)c(CNCCCO)c6)C[C@]5(C)[C@H]4[C@@H](O)C[C@]3(C)[C@]2(C(=O)CO)O1` [Example 12, 1-[(4aR,4bS,5S,6aS,6bS, 8S,9aR,10aS,10bS)-1-(4-fluoro-3-{[(3-hydroxypropyl)amino]methyl}phenyl)-5-hydroxy-4a,6a-dimethyl-8-propyl-4,4a,4b,5,6,6a,9a,10, 10a,10b,11,12-dodecahydro[1,3]dioxolo [3′,4′]cyclopenta [1′,2′:5,6]naphtho[1,2-f]indazol-6b(1H)-yl]-2-hydroxyethanone trifluoroacetic acid]: 76 nM; `CCC[C@@H]1O[C@@H]2C[C@H]3[C@@H]4CCC5=Cc6c(cnn6-c6ccc(F)c(CNCCO)c6)C[C@]5(C)[C@H]4[C@@H](O)C[C@]3(C)[C@]2(C(=O)CO)O1` [Example 15, 1-[(4aR,4bS,5S,6aS,6bS, 8R,9aR,10aS,10bS)-1-(4-fluoro-3-{[(2-hydroxyethyl)amino]-methyl}phenyl)-5-hydroxy-4a,6a-dimethyl-8-propyl-4,4a, 4b,5,6,6a,9a,10,- 10a,10b,11,12-dodecahydro [1,3]dioxolo-[3′,4′]cyclopenta[1′,2′:5,6]naphtho[1,2-f]indazol-6b(1H)-yl]-2-hydroxyethanone trifluoroacetic acid]: 42 nM. Next, `CCC[C@H]1O[C@@H]2C[C@H]3[C@@H]4CCC5=Cc6c(cnn6-c6ccc(F)c(C(=O)OC)c6)C[C@]5(C)[C@H]4[C@@H](O)C[C@]3(C)[C@]2(C(=O)CO)O1` [Example 23, Methyl 2-fluoro-5-[(4aR,4bS,5S,6aS,6bS,8S,9aR,10aS,10bS)-6b-glycoloyl-5-hydroxy-4a,6a-dimethyl-8-propyl-4a,4b,5,6,6a,6b,9a,10,10a,10b,11,12-dodecahydro[1,3]dioxolo[3′,4′]cyclopenta[1′,2′:5,6]naphtho[1,2-f]indazol-1(4H)-yl]benzoate]: 5.9 nM.

As to `CCC[C@@H]1O[C@@H]2C[C@H]3[C@@H]4CCC5=Cc6c(cnn6-c6ccc(F)c(CNCCCO)c6)C[C@]5(C)[C@H]4[C@@H](O)C[C@]3(C)[C@]2(C(=O)CO)O1` [Example 11, 1-[(4aR,4bS,5S,6aS,6bS, 8R,9aR,10aS,10bS)-1-(4-fluoro-3-{[(3-hydroxypropyl)amino]methyl}phenyl)-5-hydroxy-4a,6a-dimethyl-8-propyl-4,4a,4b,5,6,6a,9a,10, 10a,10b,11,12-dodecahydro[1,3]dioxolo [3′,4′]cyclopenta [1′,2′:5,6]naphtho[1,2-f]indazol-6b(1H)-yl]-2-hydroxyethanone trifluoroacetic acid], the IC50 was 34 nM. For `CCC[C@H]1O[C@@H]2C[C@H]3[C@@H]4CCC5=Cc6c(cnn6-c6ccc(F)c(CO)c6)C[C@]5(C)[C@H]4[C@@H](O)C[C@]3(C)[C@]2(C(=O)CO)O1` [Example 17, 1-[(4aR,4bS,5S,6aS,6bS,8S,9aR,10aS,10bS)-1-[4-Fluoro-3-(hydroxymethyl)phenyl]-5-hydroxy-4a,6a-dimethyl-8-propyl-4,4a,4b,5,6,6a,9a,10,10a,10b,11,12-dodecahydro[1,3]dioxolo[3′,4′]cyclopenta[1′,2′:5,6]naphtho[1,2-f]indazol-6b(1H)-yl]-2-hydroxyethanone], the IC50 came out at 6.6 nM.

These data come from patent US20110160167A1, “Steroid Derivatives Acting As Glucocorticosteroid Receptor Agonists” (AstraZeneca AB, priority 2007, published 2011).
